For one series, the system named is vanin-1. Set-up: method as in Jansen et al., 2013. The conditions noted are these: ref Jansen et al., 2013; cited from earlier work.
Series [1] deals with TNBS-induced mouse colitis model. As to the kind of experiment: TNBS-induced mouse colitis model. It is filed as in vivo, C57BL/6J mice. The note with it: TNBS colitis mice; lead compound 25 mg/kg, compound a 50 mg/kg once a day, 8 days; TNBS model group 10.0 ± 1.63. Here is the method:
The dose of TNBS used in this experiment is 2.0 mg/50% alcohol enema, each with a volume of 100 μl. The preparation method is 40 μl of 5% TNBS (w/v) aqueous solution, 50 μl of absolute ethanol, and 10 μl of distilled water. well mixed.
The study bred C57BL/6J mice adaptively with ordinary diet for 1 week, in an ordinary clean environment, normal light and free drinking water. The mice were randomly divided into 3 groups and numbered, fasted without water for 24 h before modeling. After weighing the mouse, use isoflurane anesthesia, insert a rubber hose with a diameter of about 0.2–0.3 cm into the mouse 3.5 cm from the anus, and slowly push 100 μl of the 2.0 mg TNBS/50% alcohol mixture solution through the hose Enter the colon, slowly pull out the plastic tube after the administration, pinch the anus with your hand, and invert it for 1 min, so that the model agent can fully penetrate the intestinal cavity of the mouse. Then put them back into the breeding cage to keep lying down, wait for the mice to wake up naturally, and create a model together. The mice in the control group were given 200 μl of lead compound solution (25 mg/kg) once a day, the mice in the experimental group were given 200 μl of compound 1c solution (50 mg/kg) once a day, and the mice in the model group were given physiological salt once a day 200 μl of aqueous solution. […]

The target in series [2] is T1, human recombinant VNN1 enzyme (Homo sapiens, UniProt O95497).
T1 sequence (O95497 22-513): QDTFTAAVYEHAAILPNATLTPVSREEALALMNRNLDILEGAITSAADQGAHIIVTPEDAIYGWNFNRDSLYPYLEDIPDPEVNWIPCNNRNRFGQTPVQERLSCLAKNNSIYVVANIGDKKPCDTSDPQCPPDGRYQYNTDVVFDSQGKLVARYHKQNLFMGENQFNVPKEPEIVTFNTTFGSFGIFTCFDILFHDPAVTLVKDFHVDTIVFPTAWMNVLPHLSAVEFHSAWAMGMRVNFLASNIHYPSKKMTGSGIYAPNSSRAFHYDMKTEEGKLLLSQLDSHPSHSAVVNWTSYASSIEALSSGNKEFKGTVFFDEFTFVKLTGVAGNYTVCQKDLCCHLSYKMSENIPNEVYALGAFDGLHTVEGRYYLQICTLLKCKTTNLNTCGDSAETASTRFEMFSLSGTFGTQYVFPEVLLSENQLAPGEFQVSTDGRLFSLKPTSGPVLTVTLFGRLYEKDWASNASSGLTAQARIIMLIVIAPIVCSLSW
Kind of series: Inhibitory activity against human recombinant VNN1 enzyme in vitro with fluorescent probe PA-AFC. The note with it: human recombinant VNN1 30 ng/ml, probe PA-AFC 20 μM, 37°C, 30 min + 30 min. It is filed as biochemical. Here is the method:
This study was used human recombinant VNN1 enzyme and fluorescent probe PA-AFC to determine the IC50 value of inhibitors.
Dilute the lead compound and each inhibitor to be tested with buffer to, for example, 400, 200, 100, 50, 25, 12.50, 6.25, 3.13, and 1.56 μM, 781 nM, 391 nM The gradient concentration of the solution. Prepare the human recombinant VNN1 enzyme solution at a concentration of 30 ng/ml. Prepare the fluorescent probe PA-AFC solution with a concentration of 20 μM.
Add 50 μl of gradient concentration of the inhibitor to be tested to each well of the black 96-well plate, and then continue to add 50 μl of the newly prepared human recombinant VNN1 enzyme solution to each well. Among them, the control group and the blank group were replaced with the same volume of buffer. After the solution is mixed, place the black 96-well plate on a shaker at 37°C for 30 min. Continue to add 100 μl of the prepared fluorescent probe solution to each well of the black 96-well plate. After mixing, place the black 96-well plate on a shaker at 37°C and incubate for 30 min. Take the black 96-well plate out of the shaker and place it in a POLARstar Omega microplate reader. Use a 420 nm filter for the excitation light and a 510 nm filter for the emission light. Record the fluorescence intensity data at 510 nm. Through GraphpadPrism mapping, the IC50 value of each inhibitor to be tested was obtained.

Series [3] addresses T2, vanin-1 enzyme (Mus musculus, UniProt Q9Z0K8).
T2 construct: from tissue; host or cells: whole living FVB-luc+ transgenic mice
T2 sequence (Q9Z0K8 24-512): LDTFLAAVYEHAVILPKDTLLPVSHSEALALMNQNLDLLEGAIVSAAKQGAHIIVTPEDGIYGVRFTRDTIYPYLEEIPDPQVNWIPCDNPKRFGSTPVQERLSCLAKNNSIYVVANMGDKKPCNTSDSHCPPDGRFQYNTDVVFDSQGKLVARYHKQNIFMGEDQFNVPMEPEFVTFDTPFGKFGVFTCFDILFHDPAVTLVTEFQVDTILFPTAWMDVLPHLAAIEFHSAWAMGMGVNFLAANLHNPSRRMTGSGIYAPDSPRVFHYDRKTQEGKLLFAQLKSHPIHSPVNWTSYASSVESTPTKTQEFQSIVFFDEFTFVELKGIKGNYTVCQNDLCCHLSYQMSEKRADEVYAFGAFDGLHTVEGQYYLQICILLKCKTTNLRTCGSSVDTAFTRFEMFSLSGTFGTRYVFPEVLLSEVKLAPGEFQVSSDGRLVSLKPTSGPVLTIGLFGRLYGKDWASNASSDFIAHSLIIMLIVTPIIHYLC
Kind of series: Inhibition of vanin-1 in transgenic mice in vivo, bioluminescence imaging with probe PA-AL. On the set-up: species or system FVB-luc + mice. The conditions noted are these: gavage, lead compound 25 mg/kg, compound a 50 mg/kg, PA-AL i.p. 1.5 h later. Here is the method: We divided FVB-luc + mice into three groups: • (1) Control group: gavage lead compound, the dose is 25 mg/kg, the gavage volume is 200 μl; • (2) Experimental group: gavage compound a, the dose is 50 mg/kg, the gavage volume is 200 μl; • (3) Blank group: Administer normal saline, the volume of intragastric administration is 200 μl.
After intragastric administration, mice were fed routinely for 1.5 h, and then mice in each group were anesthetized with 4% chloral hydrate solution and injected intraperitoneally with physiological saline solution of bioluminescent probe PA-AL (1 mM, 200 μl). In 55 min, the bioluminescence imaging of the whole body of each group of mice was measured every 5 min, and then the bioluminescence intensity was obtained by analyzing the images with the software of the in vivo imager.

The target in series [4] is T3, Vanin-1 enzyme (Homo sapiens, UniProt O95497).
T3 construct: endogenous in cells; host or cells: ES-2-Fluc (human ovarian cancer cells expressing firefly luciferase)
T3 sequence (O95497 22-513): T1 sequence (O95497 22-513)
Kind of series: Inhibition of Vanin-1 enzyme at the cellular level in ES-2-Fluc cells with bioluminescent probe PA-AL. In kind it is cell-based. The note with it: 30 min incubation with inhibitor, probe PA-AL 20 μM. Here is the method: This study explores the inhibition of Vanin-1 enzyme at the cellular level using firefly luciferase labeled human ovarian cancer cells (ES-2-Fluc) and the bioluminescent probe PA-AL.
Take a black 96-well plate with a transparent bottom, dilute the cells to a cell suspension with a concentration of 4 × 10^5 cells/ml, add 100 μl to each well to reach about 40,000 cells in each well, and incubate at 37°C for 12 h. Dilute the lead compound and each inhibitor to be tested to the final concentration of 200, 100, 50, 25, 12.50, 6.25, 3.13, 1.56, and 0.78 μM, and add 100 μl to each well. After mixing, transfer to a shaker at 37°C and incubate the cells with the inhibitor for 30 min. Prepare bioluminescent probe PA-AL solution with a concentration of 20 μM. Immediately after adding, put it into in vivo imaging for bioluminescence imaging. The bioluminescence intensity value of each hole was analyzed by the software of the living body imager, and the exposure time was 1 min. Graphpad Prism software is used to draw the IC50 value of each inhibitor to be tested.

The structures appear in SMILES notation.

A word on the melting point: it is the temperature of the solid-liquid transition. In turn, `CC(C)(CO)C(O)C(=O)NCCC(=O)Nc1ccc2c(C(F)(F)F)cc(=O)oc2c1` (centres unmarked) returned a melting point of 92.4 to 93.6 °C.

As a reminder, the IC50 is the concentration that inhibits the measured activity by half. Consider `CC(C)(CO)[C@@H](O)C(=O)NCCC(=O)Cc1ccccc1` [RR6], for which, in the series with vanin-1, the IC50 is 0.54 µM.

Turning to `O=C(c1ccc(NCc2cccnc2)cc1)N1CCC2(CCOCC2)C1` [a, (4-((pyridin-3-ylmethyl)amino)phenyl)(8-oxa-2-azaspiro[4.5]decan-2-yl)methanone], the melting point lay within 113.2 to 114.7 °C. Also, the DAI score in series [1] was determined as 6.7 ± 0.95. In series [2], the IC50 was 20.2 ± 1.32 µM. In addition, at vanin-1 enzyme [3] (30 min after probe injection), the “bioluminescence intensity at the peak relative to the blank group” value was “about one-half”. On vanin-1 enzyme [3] (about 30 min after probe injection), the “bioluminescence intensity of transgenic mice at the peak” value is listed as “significantly reduced”. For the same compound, the IC50 against Vanin-1 enzyme [4] came to 9.08 ± 0.57 µM.

With `O=C(c1ccc(NCc2cccnc2)cc1)N1CC2(CCOCC2)C1` [b, (4-((pyridin-3-ylmethyl)amino)phenyl)(7-oxa-2-azaspiro[3.5]nonan-2-yl)methanone], the melting point lay in the range of 126.1 to 126.5 °C. Besides, the IC50 in series [2] was found to be 26.2 ± 0.56 µM. Also, the IC50 at Vanin-1 enzyme [4] was determined as 12.3 ± 1.28 µM.

On to `O=C(c1ccc(NCc2cnccn2)cc1)N1CCC2(CCOCC2)C1` [c, (4-((pyrazin-2-ylmethyl)amino)phenyl)(8-oxa-2-azaspiro[4.5]decan-2-yl)methanone], for which the melting point is 173.4 to 173.8 °C. Further, in series [2], the IC50 was found to be 30.33 ± 0.11 µM. In addition, at Vanin-1 enzyme [4], the IC50 turned out to be 16.5 ± 1.92 µM.

Take `O=C(c1ccc(NCc2cnccn2)cc1)N1CC2(CCOCC2)C1` [d, (4-((pyrazin-2-ylmethyl)amino)phenyl)(7-oxa-2-azaspiro[3.5]nonan-2-yl)methanone]: the melting point lay within 191.6 to 191.9 °C. In addition, the IC50 in series [2] is 28.5 ± 0.35 µM. Besides, the IC50 at Vanin-1 enzyme [4] was found to be 15.3 ± 0.75 µM.

`O=C(c1ccc(NCc2cccnc2)cn1)N1CCC2(CCOCC2)C1` [e, (5-((pyridin-3-ylmethyl)amino)pyridin-2-yl)(8-oxa-2-azaspiro[4.5]decan-2-yl)methanone] came in with a melting point of 176.5 to 177.2 °C. Moreover, the IC50 in series [2] was 43.7 ± 1.07 µM. Further, on Vanin-1 enzyme [4], the IC50 stood at 35.8 ± 2.15 µM.

Take `O=C(c1ccc(NCc2cccnc2)cn1)N1CC2(CCOCC2)C1` [f, (5-((pyridin-3-ylmethyl)amino)pyridin-2-yl)(7-oxa-2-azaspiro[3.5]nonan-2-yl)methanone]: the melting point fell in the range of 202 to 202.3 °C. For the same compound, the IC50 in series [2] is 46.2 ± 1.27 µM. Also, at Vanin-1 enzyme [4], the IC50 was found to be 22 ± 2.66 µM.

`O=C(c1ccc(NCc2cnccn2)cn1)N1CCC2(CCOCC2)C1` [g, (5-((pyrazin-2-ylmethyl)amino)pyridin-2-yl)(8-oxa-2-azaspiro[4.5]decan-2-yl)methanone] had a melting point of 123.6 to 124.1 °C. In addition, in series [2], the IC50 stood at 51.5 ± 1.65 µM. The same compound registered an IC50 on Vanin-1 enzyme [4] of 39.8 ± 0.91 µM.

For the compound `O=C(c1ccc(NCc2cnccn2)cn1)N1CC2(CCOCC2)C1` [h, (5-((pyrazin-2-ylmethyl)amino)pyridin-2-yl)(7-oxa-2-azaspiro[3.5]nonan-2-yl)methanone], the melting point lay in the range of 104.6 to 105 °C. Also, the IC50 in series [2] was found to be 84.6 ± 2.5 µM. The same compound came in with an IC50 on Vanin-1 enzyme [4] of 59.6 ± 5.27 µM.

Consider `COc1cc(C(=O)N2CCC3(CCOCC3)C2)ccc1NCc1cccnc1` [i, (3-methoxy-4-((pyridin-3-ylmethyl)amino)phenyl)(8-oxa-2-azaspiro[4.5]decan-2-yl)methanone], for which the melting point lay within 128.2 to 129.6 °C. Moreover, in series [2], the IC50 worked out at 115 ± 13 µM. The same compound came in with an IC50 against Vanin-1 enzyme [4] of 93.7 ± 8.08 µM.

Regarding `COc1cc(C(=O)N2CC3(CCOCC3)C2)ccc1NCc1cccnc1` [j, (3-methoxy-4-((pyridin-3-ylmethyl)amino)phenyl)(7-oxa-2-azaspiro[3.5]nonan-2-yl)methanone], the melting point lay within 136.4 to 136.9 °C. Also, the IC50 in series [2] stood at 138.3 ± 0.68 µM. This compound also displayed an IC50 against Vanin-1 enzyme [4] of 80.6 ± 6.21 µM.

Source of the values: publication PMC8831383, “Visualization-Based Discovery of Vanin-1 Inhibitors for Colitis” (Frontiers in Chemistry, 2022).
